The record followed here is US20210369691A1, “METHODS AND COMPOSITIONS FOR IMPROVING BONE MARROW HEMATOPOIETIC FUNCTIONS” (Sun Yat-Sen University, priority 2018, published 2021).

The test system of assay [1] is platelets. As to the kind of experiment: Platelet recovery in peripheral blood after 5FU. Format: in vivo, mice. As to conditions: after 5FU 150 mg/kg once; ABC294640 10 mg/kg every other day; days 0, 1, 5, 11; vs solvent control; FIG. 6. On the procedure:
Preparation of the SphK2 inhibitor was as described in Example 4. Twelve 8-week-old C57 mice purchased from Laboratory Animal Center, Sun Yat-sen University were selected and divided evenly into two groups. The mice were intraperitoneally injected with 5FU at a dose of 150 mg/kg once. The injection of the inhibitor ABC294640 and the solvent control solution was as described in Example 4, which started from the day after 5-fluorouracil injection, followed by injections once every other day, at a dose of 10 mg/kg, until the end of the experiment. Periphery blood (PB) of each mouse was separately collected to determine white blood cell (WBC) counts 0, 1, 5 and 11 days after 5-FU administration. T-test analysis was carried out using Graphpad6.0, and differences were considered statistically significant when P<0.05.
The experiment was conducted as described in Example 5. Periphery blood (PB) of each mouse was separately collected to determine platelets (PLT) counts 0, 1, 5 and 11 days after 5-FU administration. T-test analysis was carried out using Graphpad6.0, and differences were considered statistically significant when P<0.05.

The subject of assay [2] is platelets. As to the kind of experiment: Platelet recovery in peripheral blood after X-ray radiation. Format: in vivo, mice. As to conditions: after X-ray 450 cGy; ABC294640 10 mg/kg i.p. every other day; days 0, 1, 7, 14; vs solvent control; **P<0.01; FIG. 8. On the procedure:
Preparation of SphK2 inhibitors was as described in Example 4. Twelve 8-week-old C57 mice purchased from Laboratory Animal Center, Sun Yat-sen University were selected and divided evenly into two groups. The mice were treated with X-ray radiation at a dose of 450 cGy. The injection of the inhibitor ABC294640 and the solvent control solution was as described in Example 4. Intraperitoneal injection of the inhibitor or the solvent control solution started from the day after the X-ray radiation, followed by injections once every other day, at a dose of 10 mg/kg, until the end of the experiment. Periphery blood (PB) of each mouse was separately collected to determine white blood cell (WBC) counts 0, 1, 7 and 14 days after X-ray radiation. T-test analysis was carried out using Graphpad6.0, and differences were considered statistically significant when P<0.05.
The experiment was conducted as described in Example 7. Periphery blood (PB) of each mouse was separately collected to determine platelets (PLT) counts 0, 1, 7 and 14 days after X-ray radiation. T-test analysis was carried out using Graphpad6.0, and differences were considered statistically significant when P<0.05.

Assay [3] is described as follows: Survival after repeated high-dose 5FU chemotherapy. Type of assay: in vivo, mice. The following applies: 5FU 150 mg/kg every 7 days, two times; ABC294640 10 mg/kg every other day; vs control group; FIG. 9. As for the experimental part:
Preparation of SphK2 inhibitors was as described in Example 4. […] 8-week-old C57 mice purchased from Laboratory Animal Center, Sun Yat-sen University were selected and divided evenly into two groups. The mice were intraperitoneally injected with 5FU at a dose of 150 mg/kg, once every 7 days for two times in total. The inhibitor ABC294640 was injected starting from the day after 5FU injection, then injected once every other day, at a dose of 10 mg/kg, until the end of the experiment. Comparison of overall survival rates was performed using the Mantel_Cox log-rank test and differences were considered statistically significant when P<0.05.

The subject of assay [4] is hematopoietic stem cells. As to the kind of experiment: Hematopoietic stem cell number and cell cycle in uninjured mice after ABC294640 treatment. Type of assay: in vivo. The following applies: vs solvent control. An excerpt: FIG. 27. illustrates the absolute number of HSPCs (LT-HSC, ST-HSC, MPP and CD150HSC) in the bone marrow (a) and cell cycle analysis of CD150 HSCs (b) in bone marrow from C57BL/6J mice after ABC294640 or solvent control treatment (n=5 mice). Data represent mean±s.d. Two-tailed Student's t-tests were used to assess statistical significance. *P<0.05, **P<0.01, ***P<0.001. To analyze whether Sphk2 inhibitor is effective in expanding hematopoietic stem cell number and enhance their function. Twenty 8-week-old C57 mice (purchased from Laboratory Animal Center, Sun Yat-sen University) were selected for the experiment. The mice were divided evenly into an inhibitor treatment group and a control group. The mice were injected intraperitoneally with ABC294640 (inhibitor treatment group) or solvent control (1:1 physiological saline: PEG400) solution (control group) every other day. 14 days after the first injection, bone marrow cells were harvested from both groups, and were analyzed for the number of hematopoietic stem cells, with methods and analysis as described in Example 1. To evaluate the hematopoietic function of the hematopoietic stem cells, 2×10^5 bone marrow cells from Sphk2 inhibitor or solvent control treated mice were transplanted into irradiated recipients (as described in Example 13). Peripheral blood was collected from the tail vein every 4 weeks after transplantation. The hematopoietic repopulation function was examined from donor-derived blood cells. The Sphk2 inhibitor was prepared as described in Example 4. Briefly, ABC294640 was purchased from Selleck and dissolved in dimethyl sulfoxide (DMSO), which was finally diluted with a mixture solution of polyethylene glycol 400 (PEG400) and physiological saline (1:1) to be administered at a dose of 10 mg/kg. T-test analysis was carried out using Graphpad6.0, and differences were considered statistically significant when *P<0.05, **P<0.01 and ***P<0.001.

Assay [5] has as its system hematopoietic stem cells. As to the kind of experiment: Hematopoietic repopulation by transplantation of bone marrow cells from inhibitor-treated mice. Type of assay: in vivo. On the procedure: To analyze whether Sphk2 deficient hematopoietic stem cells have increased hematopoietic function, 100 hematopoietic stem cells (Lin^−Sca-1^+c-Kit^+CD150^+CD48^−) from Sphk2 deficient mice or control donor mice were transplanted into irradiated wide-type recipients along with 2×10^5 CD45.1 bone marrow cells. Adult CD45.1 recipient mice were irradiated with an Orthovoltage X-ray source delivering approximately in two equal doses of 450 cGy at least 3 hours apart. Peripheral blood was collected from the tail vein every 4 weeks after the transplantation. Hematopoietic repopulation function was examined from donor-derived blood cells. To evaluate the hematopoietic function of the hematopoietic stem cells, 2×10^5 bone marrow cells from Sphk2 inhibitor or solvent control treated mice were transplanted into irradiated recipients (as described in Example 13). Peripheral blood was collected from the tail vein every 4 weeks after transplantation. The hematopoietic repopulation function was examined from donor-derived blood cells. The Sphk2 inhibitor was prepared as described in Example 4. Briefly, ABC294640 was purchased from Selleck and dissolved in dimethyl sulfoxide (DMSO), which was finally diluted with a mixture solution of polyethylene glycol 400 (PEG400) and physiological saline (1:1) to be administered at a dose of 10 mg/kg. […]

In the case of `O=C(NCc1ccncc1)C12CC3CC(C1)CC(c1ccc(Cl)cc1)(C3)C2` [ABC294640, 3-(4-chloro-phenyl)-adamantane-1-carboxylic acid (pyridin-4-ylmethyl)-amide], in assay [1], the “number of platelets from the peripheral blood” value was “significantly increased”. Further, the “number of platelets in the peripheral blood” value in assay [2] is “significantly increased”. Besides, the survival period entry in assay [3] was “significantly (***P<0.001) prolonged”. Also, the “increase of number of hematopoietic stem cells” value in assay [4] (ABC294640 10 mg/kg i.p. every other day, 14 days after first injection, FIG. 14 panel b) turned out to be 1.7 fold. Further, in assay [4] (FIG. 27), the “increase of CD150 HSCs (expanded HSC pool)” value was 1.7 fold, the “increase of LT-HSCs (expanded HSC pool)” value is 2.1 fold and the “quiescence of HSCs (cell cycle analysis of CD150 HSCs)” value is “increased quiescence”. For the same compound, in assay [5] (16 weeks after transplantation of 2x10^5 bone marrow cells from treated mice, FIG. 14 panel c), the “increase of hematopoietic reconstitution level” value is recorded as 1.5 fold. In addition, the “generation of multi-hematopoietic lineages in recipients” value in assay [5] (recipients of bone marrow cells from inhibitor-treated mice, FIG. 14 panel d) was “able to generate multi-hematopoietic lineages”.
